Results: patent publication US20190336489A1, “NON PEPTIDE HETEROBIVALENT MOLECULES FOR TREATING INFLAMMATORY DISEASES” (GLAXOSMITHKLINE INTELLECTUAL PROPERTY DEVELOPMENT LIMITED, priority 2017, published 2019)
Marks after values point to notes of the source that are not given here.

How the values were obtained:
Assay type in all cases: cell-based
CCR1 = biological target: T1, CCR1 (Homo sapiens, UniProt P32246); assay: Antibody Dependent Cellular Cytotoxicity (ADCC) reporter assay, CCR1 target cells; conditions: CHOK1 cells overexpressing CCR1; for EC50: Jurkat FcgRIIIa NFAT-luciferase reporter cells, EC50 class, read-out: ADCC potency; for ADCC efficacy: maximum signal:background (S/B)
T1 construct: expressed in transfected cells; host or cells: CHOK1
T1 sequence (P32246 1-355): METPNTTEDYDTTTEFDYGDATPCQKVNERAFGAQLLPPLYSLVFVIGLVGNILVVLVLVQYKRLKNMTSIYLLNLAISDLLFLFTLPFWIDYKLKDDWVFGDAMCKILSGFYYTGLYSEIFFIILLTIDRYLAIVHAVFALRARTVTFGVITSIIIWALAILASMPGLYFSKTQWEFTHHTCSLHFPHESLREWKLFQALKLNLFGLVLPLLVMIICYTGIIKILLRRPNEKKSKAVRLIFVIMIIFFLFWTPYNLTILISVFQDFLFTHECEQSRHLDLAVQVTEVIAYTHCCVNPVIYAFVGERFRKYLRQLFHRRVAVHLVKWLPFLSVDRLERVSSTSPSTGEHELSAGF
Text: (§1) The compounds described herein have been characterized in an ADCC reporter assay (see Section 1.2 ADCC reporter for protocol). […] Furthermore, the assay also confirms that this formed complex can engage and activate the Fc receptors on immune cells. Lastly, the assay provides both potency (EC50) and efficacy (signal to background ratio) for each compound in a dose dependant manner.
(§2) This assay has four components • 1) Heterobivalent Compound consisting of a targeting ligand and a hapten connected by a linker (ranging from 10 uM-1 pM) • 2) A hapten antibody with functional Fc domain (typical concentrations are 0.01 ug/mL-200 ug/mL) • 3) Target cells—CHOK1 cells engineered to overexpress either CCR1, CCR2, or CCR3, or CEMNKR cells engineered to overexpress CCR5 (typically 1000-20,000 cells per well) • 4) Reporter cells—Jurkat cells engineered to express FcgRIIIa (ADCC reporter assay) and with a reporter gene (luciferase) under the control of the NFAT promoter (typically 3000-75,000 cells per well)
(§3) Reagents are combined in final volume of 20 uL in 384-well tissue culture treated plated.
(§4) All components are incubated together for ˜12-18 hours. Add BioGlo Detection reagent (from Promega) to lyse the cells and provide substrate for the luciferase reporter protein. Signal is measured on a microplate reader capable of measuring luminescence. Signal:Background is calculated by dividing the signal of a test well by the signal obtained when no compound is included in the assay. EC50 calculations were done using Graphpad Prism Software, specifically a nonlinear regression curve fit (Y=Bottom+(Top−Bottom)/(1+10^((Log EC50−X)*HillSlope)))

CCR3 = biological target: T2, CCR3 (Homo sapiens, UniProt P51677); assay: Antibody Dependent Cellular Cytotoxicity (ADCC) reporter assay, CCR3 target cells; conditions: CHOK1 cells overexpressing CCR3
T2 construct: expressed in transfected cells; host or cells: CHOK1
T2 sequence (P51677 1-355): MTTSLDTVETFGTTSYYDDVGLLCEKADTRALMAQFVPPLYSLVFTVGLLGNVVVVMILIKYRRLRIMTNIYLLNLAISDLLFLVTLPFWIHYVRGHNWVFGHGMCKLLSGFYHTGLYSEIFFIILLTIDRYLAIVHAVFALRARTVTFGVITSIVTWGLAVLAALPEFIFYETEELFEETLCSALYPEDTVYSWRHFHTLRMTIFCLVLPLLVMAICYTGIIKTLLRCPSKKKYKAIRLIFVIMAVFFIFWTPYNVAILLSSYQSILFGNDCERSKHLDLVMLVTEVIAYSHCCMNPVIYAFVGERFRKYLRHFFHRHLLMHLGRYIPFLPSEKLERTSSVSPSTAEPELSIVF
Text: as §1, §2, §3, §4

CCR5 = biological target: T3, CCR5 (Homo sapiens, UniProt P51681); assay: Antibody Dependent Cellular Cytotoxicity (ADCC) reporter assay, CCR5 target cells; conditions: CEMNKR cells overexpressing CCR5
T3 construct: expressed in transfected cells; host or cells: CEMNKR
T3 sequence (P51681 whole entry): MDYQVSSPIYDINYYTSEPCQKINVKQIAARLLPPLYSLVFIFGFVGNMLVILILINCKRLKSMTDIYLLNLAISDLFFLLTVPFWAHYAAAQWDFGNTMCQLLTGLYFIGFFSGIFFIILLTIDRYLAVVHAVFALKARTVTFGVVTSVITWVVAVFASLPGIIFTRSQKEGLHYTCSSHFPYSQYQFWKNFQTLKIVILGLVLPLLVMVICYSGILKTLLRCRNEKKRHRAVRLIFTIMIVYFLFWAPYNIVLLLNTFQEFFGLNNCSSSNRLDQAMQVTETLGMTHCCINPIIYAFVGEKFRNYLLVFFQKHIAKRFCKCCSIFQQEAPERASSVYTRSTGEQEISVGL
Text: as §1, §2, §3
All components are incubated together for ˜12-18 hours. […] Signal is measured on a microplate reader capable of measuring luminescence. Signal:Background is calculated by dividing the signal of a test well by the signal obtained when no compound is included in the assay. […]

[1] = Jurkat FcgRIIIa NFAT-luciferase reporter cells, EC50 class, read-out: ADCC potency
[2] = maximum signal:background (S/B)

SMILES: CC(C)[C@@H](NC(=O)c1cccc(C(=O)NCCOCCOCCOCCOCCOCCOCCOCCOCCOCCOCCOCCNC(=O)CCCC[C@@H]2SC[C@@H]3NC(=O)N[C@@H]32)c1)C(=O)N1CCC(c2ccc(Cl)cc2)CC1 [Compound 1, N1-((R)-1-(4-(4-chlorophenyl)piperidin-1-yl)-3-methyl-1-oxobutan-2-yl)-N3-(37-oxo-41-((3aS,4S,6aR)-2-oxohexahydro-1H-thieno[3,4-d]imidazol-4-yl)-3,6,9,12,15,18,21,24,27,30,33-undecaoxa-36-azahentetracontyl)isophthalamide]
- EC50 (CCR1): 10 to 100 nM
- ADCC efficacy (CCR1): +++^d (maximum signal:background > 11 = +++)

SMILES: CC(C)[C@@H](NC(=O)c1cccc(C(=O)NCCOCCOCCOCCOCCNC(=O)CCCC[C@@H]2SC[C@@H]3NC(=O)N[C@@H]32)c1)C(=O)N1CCC(c2ccc(Cl)cc2)CC1 [Compound 2, N1-((R)-1-(4-(4-chlorophenyl)piperidin-1-yl)-3-methyl-1-oxobutan-2-yl)-N3-(16-oxo-20-((3aS,4S,6aR)-2-oxohexahydro-1H-thieno[3,4-d]imidazol-4-yl)-3,6,9,12-tetraoxa-15-azaicosyl)isophthalamide]
- EC50 (CCR1): 100 to 1000 nM
- ADCC efficacy (CCR1): ++^d (between 9-11 = ++)

SMILES: CC(C)[C@@H](NC(=O)c1cccc(C(=O)NCCOCCOCCOCCOCCOCCOCCOCCOCCC(=O)NCCOCCOCCOCCOCCOCCOCCOCCOCCOCCOCCOCCNC(=O)CCCC[C@@H]2SC[C@@H]3NC(=O)N[C@@H]32)c1)C(=O)N1CCC(c2ccc(Cl)cc2)CC1 [Compound 5, N1-((R)-1-(4-(4-chlorophenyl)piperidin-1-yl)-3-methyl-1-oxobutan-2-yl)-N3-(27,65-dioxo-69-((3aS,4S,6aR)-2-oxohexahydro-1H-thieno[3,4-d]imidazol-4-yl)-3,6,9,12,15,18,21,24,31,34, 37,40,43,46,49,52,55,58,61-nonadecaoxa-28,64-diazanonahexacontyl)isophthalamide]
- EC50 (CCR1): 100 to 1000 nM
- ADCC efficacy (CCR1): +^d (between 6-8 = +)

SMILES: O=C(NCc1ccc(C(=O)NCCOCCOCCOCCOCCOCCOCCOCCOCCOCCNc2ccc([N+](=O)[O-])cc2[N+](=O)[O-])cc1)NC[C@H]1CN(Cc2ccc(Cl)c(Cl)c2)CCO1 [Compound 20, (S)-4-((3-((4-(3,4-dichlorobenzyl)morpholin-2-yl)methyl)ureido)methyl)-N-(29-((2,4-dinitrophenyl)amino)-3,6,9,12,15,18,21,24,27-nonaoxanonacosyl)benzamide]
- EC50 (CCR3; [1]): < 1 nM
- ADCC efficacy (CCR3; [2]): +++^f (Maximum S:B > 20 = +++)
- EC50 (CCR5; [1]): < 1 nM
- ADCC efficacy (CCR5; [2]): +++^g (Maximum Signal:Background > 70 = +++)

SMILES: CC(C)[C@@H](NC(=O)c1cccc(C(=O)NCCOCCOCCOCCOCCC(=O)NCCOCCOCCOCCOCCOCCOCCOCCOCCOCCOCCOCCNC(=O)CCCC[C@@H]2SC[C@@H]3NC(=O)N[C@@H]32)c1)C(=O)N1CCC(c2ccc(Cl)cc2)CC1 [Compound 4, N1-((R)-1-(4-(4-chlorophenyl)piperidin-1-yl)-3-methyl-1-oxobutan-2-yl)-N3-(15,53-dioxo-57-((3aS,4S,6aR)-2-oxohexahydro-1H-thieno[3,4-d]imidazol-4-yl)-3,6,9,12,19,22,25,28,31,34, 37,40,43,46,49-pentadecaoxa-16,52-diazaheptapentacontyl)isophthalamide]
- EC50 (CCR1): 100 to 1000 nM
- ADCC efficacy (CCR1): ++^d (between 9-11 = ++)

SMILES: CC(C)[C@@H](NC(=O)c1cccc(C(=O)NCCOCCOCCOCCOCCOCCOCCOCCNC(=O)CCCC[C@@H]2SC[C@@H]3NC(=O)N[C@@H]32)c1)C(=O)N1CCC(c2ccc(Cl)cc2)CC1 [Compound 3, N1-((R)-1-(4-(4-chlorophenyl)piperidin-1-yl)-3-methyl-1-oxobutan-2-yl)-N3-(25-oxo-29-((3aS,4S,6aR)-2-oxohexahydro-1H-thieno[3,4-d]imidazol-4-yl)-3,6,9,12,15,18,21-heptaoxa-24-azanonacosyl)isophthalamide]
- EC50 (CCR1): 10 to 100 nM
- ADCC efficacy (CCR1): ++^d (between 9-11 = ++)
